Results taken from PubChem BioAssay AID2060606 (Molecular Pharmacology Branch, DTP, NCI, 2025).

Tested on: 922993-354-T-J3-PDC complex spheroids, viability, % test/control
Experiment: Anticancer human tumor 922993-354-T-J3-PDC patient-derived endometrial carcinoma cell line growth inhibition [CLK]
Details: for IC50: curve of first compound; for viability, T/C: stronger effect = lower value; active = viability on the fitted dose curve at most 10% of control; inactive = the rest
Outline: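 Patient-derived tumor cells grown as complex spheroids with HUVEC endothelial cells and mesenchymal stem cells, treated with drug combinations. Concentrations descend in half-log steps from near clinical Cmax, or from 10 microM if Cmax unknown.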

[1] = second compound 0.0316 µM, first compound 0.0316 µM
[2] = second compound 0.0316 µM, first compound 0.1 µM
[3] = second compound 0.0316 µM, first compound 0.316 µM
[4] = second compound 0.0316 µM, first compound 1 µM
[5] = second compound 0.0316 µM, first compound 3.16 µM
[6] = second compound 0.0316 µM, first compound 10 µM
[7] = second compound 0.1 µM, first compound 0.0316 µM
[8] = second compound 0.1 µM, first compound 0.1 µM
[9] = second compound 0.1 µM, first compound 0.316 µM
[10] = second compound 0.1 µM, first compound 1 µM
[11] = second compound 0.1 µM, first compound 3.16 µM
[12] = second compound 0.1 µM, first compound 10 µM
[13] = second compound 0.316 µM, first compound 0.0316 µM
[14] = second compound 0.316 µM, first compound 0.1 µM
[15] = second compound 0.316 µM, first compound 0.316 µM
[16] = second compound 0.316 µM, first compound 1 µM
[17] = second compound 0.316 µM, first compound 3.16 µM
[18] = second compound 0.316 µM, first compound 10 µM
[19] = second compound 1 µM, first compound 0.0316 µM
[20] = second compound 1 µM, first compound 0.1 µM
[21] = second compound 1 µM, first compound 0.316 µM
[22] = second compound 1 µM, first compound 1 µM
[23] = second compound 1 µM, first compound 3.16 µM
[24] = second compound 1 µM, first compound 10 µM
[25] = second compound 3.16 µM, first compound 0.0316 µM
[26] = second compound 3.16 µM, first compound 0.1 µM
[27] = second compound 3.16 µM, first compound 0.316 µM
[28] = second compound 3.16 µM, first compound 1 µM
[29] = second compound 3.16 µM, first compound 3.16 µM
[30] = second compound 3.16 µM, first compound 10 µM
[31] = second compound 10 µM, first compound 0.0316 µM
[32] = second compound 10 µM, first compound 0.1 µM
[33] = second compound 10 µM, first compound 0.316 µM
[34] = second compound 10 µM, first compound 1 µM
[35] = second compound 10 µM, first compound 3.16 µM
[36] = second compound 10 µM, first compound 10 µM
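Also: spheroids exposed to the agents for 7 days before readout.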

CC1COCCN1c1cc(C2(S(C)(=N)=O)CC2)nc(-c2ccnc3[nH]ccc23)n1 (centres undefined) + CN1CCN(c2cc(C(=O)Nc3cc4cc(-c5cnn(C)c5)ccc4cn3)ccn2)CC1
> 10000 nM: IC50 (second compound 0.0316 µM) | IC50 (second compound 0.1 µM)
inactive: viability, T/C [1] 122% | viability, T/C [2] 119% | viability, T/C [3] 119% | viability, T/C [4] 120% | viability, T/C [5] 117% | viability, T/C [6] 76.3% | viability, T/C [7] 90.6% | viability, T/C [8] 111% | viability, T/C [9] 111% | viability, T/C [10] 94.6% | viability, T/C [11] 104% | viability, T/C [12] 60.7% | viability, T/C [13] 38.1% | viability, T/C [14] 45.2% | viability, T/C [15] 35.9% | viability, T/C [16] 36.2% | viability, T/C [17] 27.9% | viability, T/C [18] 13.3%
< 31.6 nM: IC50 (second compound 0.316 µM) | IC50 (second compound 1 µM) | IC50 (second compound 3.16 µM) | IC50 (second compound 10 µM)
active: viability, T/C [19] 0.12% | viability, T/C [20] 0.14% | viability, T/C [21] 1.67% | viability, T/C [22] 0.14% | viability, T/C [23] 0.12% | viability, T/C [24] 0.08% | viability, T/C [25] 0.13% | viability, T/C [26] 0.13% | viability, T/C [27] 0.16% | viability, T/C [28] 0.94% | viability, T/C [29] 1.11% | viability, T/C [30] 0.87% | viability, T/C [31] 0.78% | viability, T/C [32] 0.17% | viability, T/C [33] 1.4% | viability, T/C [34] 0.2% | viability, T/C [35] 0.94% | viability, T/C [36] 1.78%

O=C(c1cc(Cc2n[nH]c(=O)c3ccccc23)ccc1F)N1CCN(C(=O)C2CC2)CC1 + CN1CCN(c2cc(C(=O)Nc3cc4cc(-c5cnn(C)c5)ccc4cn3)ccn2)CC1
inactive: viability, T/C [1] 118% | viability, T/C [2] 106% | viability, T/C [3] 108% | viability, T/C [4] 117% | viability, T/C [5] 93.5% | viability, T/C [6] 97% | viability, T/C [7] 92.1% | viability, T/C [8] 98.6% | viability, T/C [9] 95.8% | viability, T/C [10] 87% | viability, T/C [11] 84.6% | viability, T/C [12] 84.8% | viability, T/C [13] 44.1% | viability, T/C [14] 32% | viability, T/C [15] 24.3% | viability, T/C [16] 33% | viability, T/C [17] 39.1% | viability, T/C [18] 32.2%
< 31.6 nM: IC50 (second compound 0.316 µM) | IC50 (second compound 1 µM) | IC50 (second compound 3.16 µM) | IC50 (second compound 10 µM)
active: viability, T/C [19] 0.1% | viability, T/C [20] 0.12% | viability, T/C [21] 1.56% | viability, T/C [22] 0.08% | viability, T/C [23] 1.32% | viability, T/C [24] 1.97% | viability, T/C [25] 0.08% | viability, T/C [26] 0.63% | viability, T/C [27] 0.57% | viability, T/C [28] 0.11% | viability, T/C [29] 1.25% | viability, T/C [30] 1.13% | viability, T/C [31] 0.12% | viability, T/C [32] 1.28% | viability, T/C [33] 2.09% | viability, T/C [34] 1.28% | viability, T/C [35] 0.42% | viability, T/C [36] 2.31%
> 10000 nM: IC50 (second compound 0.0316 µM) | IC50 (second compound 0.1 µM)
